The text below walks through data of ChEMBL document CHEMBL4665912, “Novel Compounds as STING Modulators for Treating Hepatitis B Virus Infections” (ACS Med Chem Lett, 2020).

The structures appear in SMILES notation. Some results are limits rather than exact numbers.

Experiment [1] deals with T1, Stimulator of interferon genes protein (Homo sapiens, UniProt Q86WV6). Briefly: Competitive binding affinity to human recombinant C-terminal Avi-tag STING using Alexa 488 probe incubated for 15 mins by FRET based assay.
Experiment [2] has as its target T1, Stimulator of interferon genes protein. Briefly: Agonist activity at STING in human PBMC cells assessed as increase in […] by electrochemiluminescence assay. Type of experiment: cell-based.

T1 sequence (Q86WV6 whole entry): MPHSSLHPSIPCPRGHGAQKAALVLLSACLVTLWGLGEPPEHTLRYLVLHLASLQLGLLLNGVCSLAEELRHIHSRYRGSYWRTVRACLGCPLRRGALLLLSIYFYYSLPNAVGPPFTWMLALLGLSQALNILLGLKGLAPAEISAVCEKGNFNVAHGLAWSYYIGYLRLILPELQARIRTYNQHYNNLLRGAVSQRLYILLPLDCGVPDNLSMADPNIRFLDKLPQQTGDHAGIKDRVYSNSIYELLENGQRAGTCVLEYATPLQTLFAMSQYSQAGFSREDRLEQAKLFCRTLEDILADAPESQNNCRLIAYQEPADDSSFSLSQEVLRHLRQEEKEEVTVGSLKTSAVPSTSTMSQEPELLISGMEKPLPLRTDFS

Take `CCn1nc(C)cc1C(=O)/N=c1\n(C)c2ccccc2n1C/C=C/Cn1/c(=N/C(=O)c2cc(C)nn2CC)n(C)c2cccc(CN3CCCCC3)c21`: the IC50 (in general, the concentration at which inhibition is half-maximal) in experiment [1] is below 1 nM. The EC50 (usually the concentration giving half of the maximal effect) in experiment [2] was below 1 nM.
In the case of `CCn1nc(C)cc1C(=O)/N=c1\n(C)c2ccccc2n1C/C=C/Cn1/c(=N/C(=O)c2cc(C)nn2CC)n(C)c2c(CO)cccc21`, the IC50 in experiment [1] is below 1 nM. Moreover, the EC50 in experiment [2] is below 1 nM.
Take `CCn1nc(C)cc1C(=O)/N=c1\n(C)c2cccc(OC)c2n1C/C=C/Cn1/c(=N/C(=O)c2cc(C)nn2CC)n(C)c2cccc(OCCCO)c21`: in experiment [1], the IC50 is below 1 nM. Further, the EC50 in experiment [2] is below 1 nM.
Take `CCn1nc(C)cc1C(=O)/N=c1\n(C)c2ccccc2n1C/C=C/Cn1/c(=N/C(=O)c2cc(C)nn2CC)n(C)c2cccc(C(O)CO)c21` (configuration not stated): in experiment [1], the IC50 was below 1 nM. Besides, the EC50 in experiment [2] was found to be 1 nM.
In the case of `CCn1nc(C)cc1C(=O)/N=c1\n(C)c2ccccc2n1C/C=C/Cn1/c(=N/C(=O)c2cc(C)nn2CC)n(C)c2cccc(CN3CCOCC3)c21`, in experiment [1], the IC50 is below 1 nM. Also, in experiment [2], the EC50 is below 1 nM.
With `CCn1nc(C)cc1C(=O)/N=c1\n(C)c2ccccc2n1C/C=C/Cn1/c(=N/C(=O)c2cc(C)nn2CC)n(C)c2cccc(CN3CCCCCC3)c21`, the IC50 in experiment [1] was below 1 nM. In addition, in experiment [2], the EC50 is below 1 nM.
